Laboratory results taken from patent publication US20150315211A1, “SMALL MOLECULES FOR THE MODULATION OF MCL-1 AND METHODS OF MODULATING CELL DEATH, CELL DIVISION, CELL DIFFERENTIATION AND METHODS OF TREATING DISORDERS” (priority 2010, published 2015).

Assays:
BCL-XLΔC = BCL-XLΔC (Homo sapiens, UniProt Q07817); test: High-throughput competitive FP binding screen, FITC-BAD BH3/BCL-XLΔC interaction; conditions: FITC-BAD BH3/BCL-XLΔC interaction pair, competitive FP screen
MCL-1ΔNΔC [1] = test: High-throughput competitive FP binding screen, FITC-MCL-1 SAHB/MCL-1ΔNΔC interaction; conditions: selectivity for MCL-1ΔNΔC over BCL-XLΔC targeting (BCL-XL % Bound minus MCL-1 % Bound)
MCL-1ΔNΔC [2] = molecular target: MCL-1ΔNΔC (Homo sapiens, UniProt Q07820); test: as above; set-up: the C-terminal alpha-helix was deleted from each of these constructs; GST (N, cleaved yes); made in house; conditions: FITC-MCL-1 SAHB/MCL-1ΔNΔC interaction pair, competitive FP screen
MCL-1ΔNΔC (Homo sapiens, UniProt Q07820), sequence (Q07820 172-320 limits assumed, stated change not applied): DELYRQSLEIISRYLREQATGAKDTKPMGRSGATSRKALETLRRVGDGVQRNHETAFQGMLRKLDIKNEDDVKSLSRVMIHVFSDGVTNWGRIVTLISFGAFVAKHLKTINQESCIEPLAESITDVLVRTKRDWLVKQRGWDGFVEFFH

BCL-XLΔC, sequence (Q07817 1-212 limits assumed, stated change not applied): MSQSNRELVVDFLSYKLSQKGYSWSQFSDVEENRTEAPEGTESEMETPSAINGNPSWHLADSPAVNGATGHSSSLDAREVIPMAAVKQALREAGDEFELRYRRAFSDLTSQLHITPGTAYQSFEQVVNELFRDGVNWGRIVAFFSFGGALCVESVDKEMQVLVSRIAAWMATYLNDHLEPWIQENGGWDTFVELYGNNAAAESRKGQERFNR

| Structure (SMILES) | BCL-XL % Bound (BCL-XLΔC) [%] | Spec Values (MCL-1ΔNΔC [1]) | MCL-1% Bound (MCL-1ΔNΔC [2]) [%] |
| --- | --- | --- | --- |
| NC(=O)c1c(Nc2nc3c(F)cccc3s2)sc2c1CCCC2 | 103.9 | 89.1 | 14.83 |
| O=C(c1ccccc1)c1ccc2nc(-c3ccco3)c(-c3ccco3)nc2c1 | 101.3 | 86.7 | 14.6 |
| CC(C)(C)c1cc(O)c2oc(=O)c(-c3nc(-c4ccccc4F)no3)cc2c1 | 71.1 | 84.11 | −13.01 |
| C/N=c1\scc(-c2c[nH]c3ccccc23)n1C | 114.1 | 83.96 | 30.17 |
| Cc1ccc(NC(=O)COc2ncnc3c2cnn3-c2ccccc2)cc1 | 99.91 | 83.71 | 16.2 |
| O=S(=O)(Nc1ccc(Oc2ccc(Cl)cc2C2CCCCC2)nc1)c1cccc2nonc12 | 103.4 | 82.7 | 20.72 |
| CC(C)c1ccc(C2=CC(=O)C=CC2=O)cc1 | 89.1 | 82.58 | 6.516 |
| CCc1cccc(NC(=O)/C=C/c2ccco2)c1 | 80.4 | 81.13 | −0.7334 |
| Cc1occc1-c1nnc2n1N=C(c1ccc(-c3cc(Cl)ccc3Cl)o1)CS2 | 104 | 81.03 | 22.98 |
| Cc1cc(C)c2nc(N3CCCN(C(=O)c4ccco4)CC3)c(C#N)cc2c1 | 92.2 | 80.8 | 11.4 |
| Cc1ccc(C)n1-c1cc(Cl)ccc1C(=O)O | 75.93 | 79.84 | −3.914 |
| O=C(OCc1ccc(F)cc1)c1cc(-c2ccco2)nc2ccccc12 | 101.6 | 79.65 | 21.94 |
| Cc1ccc(NC(=S)Nc2ccc3nc(-c4ccco4)c(-c4ccco4)nc3c2)cc1 | 75.97 | 78.01 | −2.047 |
| Oc1ccc2cc3c4cc(Br)ccc4nc-3oc2c1O | 90.07 | 76.69 | 13.37 |
| O=C1/C(=C\C=C\c2ccco2)SC(=S)N1NCc1ccccc1O | 95.8 | 76.1 | 19.8 |
| COC(=O)/C=C1/OC(c2ccc(Cl)cc2)=CC1=O | 97.17 | 75.38 | 21.79 |
| O=C1CSCC(=O)N1c1csc(C(F)(F)F)c1-c1ccccc1 | 96.35 | 74.8 | 21.55 |
| [Na+].[Na+].[O-]c1c(Cl)cc(Cl)cc1Sc1cc(Cl)cc(Cl)c1[O-] | 100.4 | 73.22 | 27.2 |
| CN1c2ccccc2C(C)(C)C12C=Cc1cc(O)ccc1O2 (stereo not drawn) | 111 | 73.1 | 37.92 |
| COC(=O)c1cc(OC(=O)c2ccccc2Br)n(C)n1 | 103.1 | 72.92 | 30.23 |
| O=c1oc2ccccc2c2oc3cc(O)c(O)cc3c12 | 84.9 | 72.31 | 12.59 |
| Oc1cccnc1NC(c1ccc(F)cc1)c1ccc2cccnc2c1O (stereo not drawn) | 113.7 | 71.24 | 42.49 |
| Cc1cc2c(n1-c1ccc(C(=O)O)cc1)CCCC2 | 65.33 | 71.18 | −5.85 |
| COc1ccc(C(=O)c2sc3cc(-c4ccco4)cc(C(F)(F)F)c3c2N)cc1OC | 85.27 | 70.97 | 14.29 |
| Cc1occc1-c1nnc2sc(Cc3cccc4ccccc34)nn12 | 129.5 | 70.8 | 58.7 |
| O=C(Nc1ccccc1)C(C(F)(F)F)C(F)(F)F | 82.61 | 70.63 | 11.98 |
| CC1CCN(C2=NN3C(=N)/C(=C\c4ccc(SCc5ccco5)o4)C(=O)N=C3S2)CC1 | 84.68 | 70.38 | 14.3 |
| CCCCn1nnnc1COC(=O)/C(C#N)=C/c1ccc(N(C)C)cc1 | 62.97 | 70.27 | −7.306 |
| O=C1NC(=O)/C(=C/c2ccc(-c3ccc(S(=O)(=O)N4CCOCC4)cc3)o2)S1 | 107.9 | 69.33 | 38.57 |
| Cc1ccc2[nH]c3nc(=S)[nH]nc3c2c1 | 107.9 | 69.2 | 38.65 |
